We go through 3 molecules from publication PMC11018872, “Dynamic inter-domain transformations mediate the allosteric regulation of human 5, 10-methylenetetrahydrofolate reductase” (Nature Communications, 2024).

Holding throughout (type): binding
The target in experiment [1] is T1, 5,10-methylenetetrahydrofolate reductase (MTHFR) (Homo sapiens, UniProt P42898).
T1 construct: MTHFRFL aa 1–656
In words: ITC; cryo-EM structure at […] Å; DSF; HPLC activity assay. (In general: ITC needs no label: the signal is the heat of the interaction.)

The target of experiment [2] is T1, 5,10-methylenetetrahydrofolate reductase (MTHFR). In words: ITC; cryo-EM structures at […] and […] Å.
Experiment [3] shares this target. In words: cryo-EM structure at […] Å (SAM-bound state).

pKd: −log10 of the molar value.

T1 sequence (P42898 whole entry, the tested form may be a part): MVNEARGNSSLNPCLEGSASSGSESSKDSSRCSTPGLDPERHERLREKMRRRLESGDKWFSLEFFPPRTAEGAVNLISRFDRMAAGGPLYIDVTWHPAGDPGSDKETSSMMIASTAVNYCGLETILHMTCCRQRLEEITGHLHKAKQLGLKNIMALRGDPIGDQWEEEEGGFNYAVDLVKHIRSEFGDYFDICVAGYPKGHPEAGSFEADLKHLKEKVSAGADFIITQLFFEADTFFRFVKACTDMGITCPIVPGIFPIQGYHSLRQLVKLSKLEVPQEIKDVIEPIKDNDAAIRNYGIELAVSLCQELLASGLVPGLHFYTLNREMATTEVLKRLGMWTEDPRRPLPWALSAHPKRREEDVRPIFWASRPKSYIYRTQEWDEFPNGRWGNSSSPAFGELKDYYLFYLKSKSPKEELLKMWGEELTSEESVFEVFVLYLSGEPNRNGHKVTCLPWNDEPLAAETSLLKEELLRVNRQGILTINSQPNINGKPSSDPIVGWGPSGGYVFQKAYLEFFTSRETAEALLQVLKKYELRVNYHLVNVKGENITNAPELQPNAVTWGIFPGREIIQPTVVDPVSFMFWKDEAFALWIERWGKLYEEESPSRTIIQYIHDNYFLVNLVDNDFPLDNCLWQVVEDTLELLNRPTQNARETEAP

In the case of `C[S+](CC[C@H](N)C(=O)[O-])C[C@H]1O[C@@H](n2cnc3c(N)ncnc32)[C@H](O)[C@@H]1O` (stereo partly drawn) [SAM, S-adenosyl-L-methionine], in experiment [1], the negative logarithm of the Kd (pKd) (commonly the negative decadic logarithm of the Kd, by convention in mol/L) was 6.00 to 6.07.
In turn, `Nc1ncnc2c1ncn2[C@@H]1O[C@H](CSCC[C@H](N)C(=O)O)[C@@H](O)[C@H]1O` [SAH, S-adenosyl-L-homocysteine] had a pKd in experiment [2] of 6.41 to 6.42.
Regarding `Cc1cc2nc3c(=O)[nH]c(=O)nc-3n(C[C@H](O)[C@H](O)[C@H](O)COP(=O)(O)OP(=O)(O)OC[C@H]3O[C@@H](n4cnc5c(N)ncnc54)[C@H](O)[C@@H]3O)c2cc1C` [FAD, flavin adenine dinucleotide], the “cryo-EM structure at 2.9 Å (SAM-bound state)” value in experiment [3] was “FAD was found in both CD active sites of the homodimer (Fig. 2c) with clear electron densities”.
